Measurements taken from US12667572B2, “Tricyclic compounds useful in the treatment of cancer, autoimmune and inflammatory disorders” (SCHRÖDINGER, INC., priority 2021, dated 2026).

Molecular target: T1, full-length MALT1 protein His-MALT1(1-824) (Homo sapiens, UniProt Q9UDY8)
T1 construct: full-length MALT1 protein His-MALT1(1-824); His (N); made in house; host or cells: baculovirus-infected insect cells
T1 sequence (Q9UDY8 1-824): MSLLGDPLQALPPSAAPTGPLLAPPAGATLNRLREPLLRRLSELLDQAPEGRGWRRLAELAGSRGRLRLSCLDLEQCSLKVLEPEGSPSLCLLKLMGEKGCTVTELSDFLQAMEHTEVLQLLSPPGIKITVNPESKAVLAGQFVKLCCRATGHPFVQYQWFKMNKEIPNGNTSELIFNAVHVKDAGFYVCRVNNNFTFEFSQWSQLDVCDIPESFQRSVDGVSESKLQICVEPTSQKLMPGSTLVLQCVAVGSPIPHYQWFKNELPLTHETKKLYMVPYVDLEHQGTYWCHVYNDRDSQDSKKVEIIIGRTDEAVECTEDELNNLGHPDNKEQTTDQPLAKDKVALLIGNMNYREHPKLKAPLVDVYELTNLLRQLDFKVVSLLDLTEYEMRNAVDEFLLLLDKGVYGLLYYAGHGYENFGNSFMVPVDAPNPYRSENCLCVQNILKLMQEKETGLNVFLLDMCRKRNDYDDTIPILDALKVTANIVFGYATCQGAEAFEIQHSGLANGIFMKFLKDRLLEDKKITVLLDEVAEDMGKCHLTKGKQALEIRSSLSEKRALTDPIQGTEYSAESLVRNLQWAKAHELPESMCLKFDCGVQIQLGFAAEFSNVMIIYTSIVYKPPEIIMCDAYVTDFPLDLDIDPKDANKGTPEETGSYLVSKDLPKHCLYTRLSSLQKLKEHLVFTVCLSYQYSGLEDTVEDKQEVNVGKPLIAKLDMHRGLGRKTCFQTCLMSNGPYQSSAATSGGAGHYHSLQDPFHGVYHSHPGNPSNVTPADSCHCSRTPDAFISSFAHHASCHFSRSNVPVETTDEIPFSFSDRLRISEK
Assay: MALT1 protease assay, Assay 2 (1 nM MALT1, Ac-LRSR-AMC substrate)
Assay type: biochemical
Details: 1 nM MALT1, 50 μM Ac-LRSR-AMC, 2 h pre-incubation, 8 hr incubation at RT
Experimental: MALT1 protease activity was assessed in an in vitro assay using a tetrapeptide as substrate and full-length MALT1 protein His-MALT1(1-824) purified from baculovirus-infected insect cells. The tetrapeptide substrate is Ac-LRSR-AMC (SM Biochemicals) with Km measured at around 100 μM.
The final assay buffer includes 1 nM (Assay 2) or 2 nM (Assay 1) of MALT1 full-length protein, 50 μM Ac-LRSR-AMC substrate, 50 mM Tris pH 7.5, 600 mM Sodium Citrate, 1 mM DTT, 1 mM EDTA, and 0.05% BSA in 384-well plate format using black microtiter square well plates (Optiplate 384-F, Perkin Elmer).
Test compounds were dissolved in 100% DMSO at stock of 10 mM, with final DMSO concentration 0.1%. Test compounds were pre-incubated with MALT1 protein for 2 h at room temperature. Substrate was added after the pre-incubation and fluorescence signal was measured using Envision at excitation 355 nm and emission 460 nm after 8 hr incubation at RT. Increase in the assay signal was linear over this period and proportional with increase in the enzyme content.
The fluorescence units were transformed to percentage of remaining activity by using the high control (HC, median of fluorescence signal from wells containing MALT1 protein, substrate, and DMSO) and low control (LC, median of fluorescence signal from wells with substrate only) with the formula below: […]
IC50 and Hill coefficients were obtained using Graph Pad Prism (Graph Pad software, Inc, USA) with non-linear regression analysis.

Row | IC50 | SMILES
1 | 100 to 1000 nM | C[C@]1(C(F)(F)F)C[C@@H](C(=O)Nc2cnc(-n3nccn3)c(C(F)F)c2)c2cnc3cc(Cl)nn3c21 (single isomer, unassigned) [Example 63, 2-chloro-N-(5-(difluoromethyl)-6-(2H-1,2,3-triazol-2-yl)pyridin-3-yl)-8-methyl-8-(trifluoromethyl)-7,8-dihydro-6H-cyclopenta[e]pyrazolo[1,5-a]pyrimidine-6-carboxamide]
2 | 100 to 1000 nM | CC1(C)CC(C(=O)Nc2ccnc(C(F)(F)F)c2)c2cnn3cc(C(F)F)nc3c21 (single isomer, unassigned) [Example 201, 2-(difluoromethyl)-9,9-dimethyl-N-(2-(trifluoromethyl)pyridin-4-yl)-8,9-dihydro-7H-cyclopenta[d]imidazo[1,2-b]pyridazine-7-carboxamide]
3 | 100 to 1000 nM | Cc1cc(NC(=O)C2CC(C)(C)c3c2cnc2cc(F)nn32)cnc1-c1ccn(C)n1 (stereo not drawn) [Example 177, 2-fluoro-8,8-dimethyl-N-(5-methyl-6-(1-methyl-1H-pyrazol-3-yl)pyridin-3-yl)-7,8-dihydro-6H-cyclopenta[e]pyrazolo[1,5-a]pyrimidine-6-carboxamide]
4 | 10 to 100 nM | CCNC(=O)c1ncc(NC(=O)C2CC(C)(C)c3c2cnc2cc(Cl)nn32)cc1C(F)(F)F (stereo not drawn) [Example 115, 2-chloro-N-(6-(ethylcarbamoyl)-5˜(trifluoromethyl)pyridin-3-yl)-8,8-dimethyl-7,8-dihydro-6H-cyclopenta[e]pyrazolo[1,5-a]pyrimidine-6-carboxamide]
5 | 100 to 1000 nM | CC1(C)CC(C(=O)Nc2cnc(-n3nccn3)c(Cl)c2)c2cnc3c(F)cnn3c21 (single isomer, unassigned) [Example 100, N-(5-chloro-6-(2H-1,2,3-triazol-2-yl)pyridin-3-yl)-3-fluoro-8,8-dimethyl-7,8-dihydro-6H-cyclopenta[e]pyrazolo[1,5-a]pyrimidine-6-carboxamide]
6 | 100 to 1000 nM | C[C@]1(C(F)(F)F)C[C@@H](C(=O)Nc2cnc(-n3nccn3)c(Cl)c2)c2cnc3cc(F)nn3c21 (single isomer, unassigned) [Example 184]
7 | 100 to 1000 nM | CC1(C)CC(C(=O)Nc2cnc(C(=O)N3CC(F)(F)C3)c(C(F)F)c2)c2cnc3cc(Cl)nn3c21 (stereo not drawn) [Example 174, 2-chloro-N-(6-(3,3-difluoroazetidine-1-carbonyl)-5-(difluoromethyl)pyridin-3-yl)-8,8-dimethyl-7,8-dihydro-6H-cyclopenta[e]pyrazolo[1,5-a]pyrimidine-6-carboxamide]
8 | 100 to 1000 nM | CC1(C)C[C@@H](C(=O)Nc2cnc(-n3nccn3)c(Cl)c2)c2cnn3cc(Cl)nc3c21 (single isomer, unassigned) [Example 194, 2-chloro-N-(5-chloro-6-(2H-1,2,3-triazol-2-yl)pyridin-3-yl)-9,9-dimethyl-8,9-dihydro-7H-cyclopenta[d]imidazo[1,2-b]pyridazine-7-carboxamide]
9 | ≥ 1000 nM | CC(C)(O)c1ncc(NC(=O)[C@@H]2CC3(CCC3)c3c2cnc2cc(F)nn32)cc1Cl (single isomer, unassigned) [Example 104, N-(5-chloro-6-(2-hydroxypropan-2-yl)pyridin-3-yl)-2′-fluoro-6′,7′-dihydrospiro[cyclobutane-1,8′-cyclopenta[e]pyrazolo[1,5-a]pyrimidine]-6′-carboxamide]
10 | ≥ 1000 nM | CC(C)(C)C1OC(=O)c2cc(NC(=O)C3CC4(CCC4)c4c3cnc3cc(F)nn43)cnc21 (stereo not drawn) [Example 166, N-(7-(tert-butyl)-5-oxo-5,7-dihydrofuro[3,4-b]pyridin-3-yl)-2′-fluoro-6′,7′-dihydrospiro[cyclobutane-1,8′-cyclopenta[e]pyrazolo[1,5-a]pyrimidine]-6′-carboxamide]
11 | 100 to 1000 nM | Cn1nnc(-c2ncc(NC(=O)C3CC(C)(C)c4c3cnc3cc(Cl)nn43)cc2Cl)n1 (single isomer, unassigned) [Example 143, 2-chloro-N-(5-chloro-6-(2-methyl-2H-tetrazol-5-yl)pyridin-3-yl)-8,8-dimethyl-7,8-dihydro-6H-cyclopenta[e]pyrazolo[1,5-a]pyrimidine-6-carboxamide]
12 | ≥ 1000 nM | C[C@H](O)c1cnn(-c2ncc(NC(=O)[C@@H]3CC(C)(C)c4c3cnc3cc(Cl)nn43)cc2Cl)n1 (single isomer, unassigned) [Example 50, 2-chloro-N-(5-chloro-6-(4-(1-hydroxyethyl)-2H-1,2,3-triazol-2-yl)pyridin-3-yl)-8,8-dimethyl-7,8-dihydro-6H-cyclopenta[e]pyrazolo[1,5-a]pyrimidine-6-carboxamide]
13 | ≥ 1000 nM | CC(C)(O)c1ncc(NC(=O)C2CC3(CCC3)c3c2cnc2cc(F)nn32)cc1C(F)(F)F (single isomer, unassigned) [Example 153, 2′-fluoro-N-(6-(2-hydroxypropan-2-yl)-5-(trifluoromethyl)pyridin-3-yl)-6′,7′-dihydrospiro[cyclobutane-1,8′-cyclopenta[e]pyrazolo[1,5-a]pyrimidine]-6′-carboxamide]
14 | 10 to 100 nM | CC1(C)CC(C(=O)Nc2cnc(-n3nccn3)c(C#N)c2)c2cnc3cc(C(F)F)nn3c21 (single isomer, unassigned) [Example 130, N-(5-cyano-6-(2H-1,2,3-triazol-2-yl)pyridin-3-yl)-2-(difluoromethyl)-8,8-dimethyl-7,8-dihydro-6H-cyclopenta[e]pyrazolo[1,5-a]pyrimidine-6-carboxamide]
15 | 100 to 1000 nM | CC1(C)CC(C(=O)Nc2cnc(OC(F)F)c(Cl)c2)c2cnc3cc(Cl)nn3c21 (single isomer, unassigned) [Example 67, 2-chloro-N-(5-chloro-6-(difluoromethoxy)pyridin-3-yl)-8,8-dimethyl-7,8-dihydro-6H-cyclopenta[e]pyrazolo[1,5-a]pyrimidine-6-carboxamide]
16 | 10 to 100 nM | CC1(C)C[C@@H](C(=O)Nc2cnc(-n3nccn3)c(C(F)(F)F)c2)c2cnc3cc(F)nn3c21 (single isomer, unassigned) [Example 150, N-(6-(2H-1,2,3-triazol-2-yl)-5-(trifluoromethyl)pyridin-3-yl)-2-fluoro-8,8-dimethyl-7,8-dihydro-6H-cyclopenta[e]pyrazolo[1,5-a]pyrimidine-6-carboxamide]
17 | ≥ 1000 nM | Cc1cc(NC(=O)[C@@H]2CC(C)(C)c3c2cnc2cc(F)nn32)cnc1-n1nccn1 (single isomer, unassigned) [Example 182]
18 | ≥ 1000 nM | Cc1cc(NC(=O)[C@@H]2CC(C)(C)c3c2cnc2cc(Cl)nn32)cnc1-n1nccn1 (single isomer, unassigned) [Example 180]
19 | ≥ 1000 nM | CC1(C)C[C@](C)(C(=O)Nc2cnc(-n3nccn3)c(Cl)c2)c2cnc3cc(Cl)nn3c21 (single isomer, unassigned) [Example 138, 2-chloro-N-(5-chloro-6-(2H-1,2,3-triazol-2-yl)pyridin-3-yl)-6,8,8-trimethyl-7,8-dihydro-6H-cyclopenta[e]pyrazolo[1,5-a]pyrimidine-6-carboxamide]
20 | 100 to 1000 nM | CC1(C)C[C@@H](C(=O)Nc2cnc(-n3nccn3)c(C#N)c2)c2cnc3cc(C(F)F)nn3c21 (single isomer, unassigned) [Example 129, N-(5-cyano-6-(2H-1,2,3-triazol-2-yl)pyridin-3-yl)-2-(difluoromethyl)-8,8-dimethyl-7,8-dihydro-6H-cyclopenta[e]pyrazolo[1,5-a]pyrimidine-6-carboxamide]
21 | 10 to 100 nM | CC1(C)CC(C(=O)Nc2cnc(C(=O)N3CCC3)c(C(F)(F)F)c2)c2cnc3cc(Cl)nn3c21 (stereo not drawn) [Example 118, N-(6-(azetidine-1-carbonyl)-5˜(trifluoromethyl)pyridin-3-yl)-2-chloro-8,8-dimethyl-7,8-dihydro-6H-cyclopenta[e]pyrazolo[1,5-a]pyrimidine-6-carboxamide]
